This is an account of results in US6436915B1, “Pyrazole compounds” (Kinetek Pharmaceuticals, Inc., priority 2000, dated 2002).

Experiment [1] relates to Lewis Lung Carcinoma cells. As to the kind of experiment: Anti-tumor activity in a murine model using Lewis Lung Carcinoma cells (FIG. 1). The experiment is classed as in vivo. Conditions: FIG. 1 legend only.
The next experiment has as its target T1, integrin linked kinase (Homo sapiens, UniProt Q13418).
T1 construct: The target integrin linked kinase is a full-length recombinant protein expressed in sF9 insect cells by baculovirus infection; GST (N); made in house; host or cells: Baculovirus; virus made in Sf9 cells, litre-scale expression in Hi5 insect cells
T1 sequence (Q13418 1-452): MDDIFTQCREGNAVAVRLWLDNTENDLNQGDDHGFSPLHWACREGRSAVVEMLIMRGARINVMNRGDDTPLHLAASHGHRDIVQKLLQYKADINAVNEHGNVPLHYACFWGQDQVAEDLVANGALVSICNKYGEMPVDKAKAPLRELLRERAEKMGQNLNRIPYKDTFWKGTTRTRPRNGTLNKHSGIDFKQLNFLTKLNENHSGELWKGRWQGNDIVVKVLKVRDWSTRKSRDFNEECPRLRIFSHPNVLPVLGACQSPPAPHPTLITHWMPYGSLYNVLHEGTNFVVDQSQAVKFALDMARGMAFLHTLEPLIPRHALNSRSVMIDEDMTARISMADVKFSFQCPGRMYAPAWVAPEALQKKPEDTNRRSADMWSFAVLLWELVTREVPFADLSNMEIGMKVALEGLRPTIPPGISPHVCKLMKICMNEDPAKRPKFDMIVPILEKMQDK
As to the kind of experiment: In vitro kinase inhibition assay, integrin linked kinase (radioactive phosphate incorporation, scintillation counting). The experiment is classed as biochemical. Conditions: full-length recombinant ILK expressed in insect cells; substrate CKRRRLASLR-amide; 15 min at room temperature. On the procedure: Compounds were screened using a series of disease related kinase targets, such as integrin linked kinase-1. Synthesized libraries of compounds are tested against each of the targets to find compounds that inhibit one of the targets preferentially. The desired in vitro potency of the inhibitor is such that the compound is useful as a therapeutic agent, i.e. in the nanomolar or micromolar range.
Inhibition of the targets is measured by scintillation counting; the incorporation of radioactive phosphate onto a specific substrate which is immobilized onto a filter paper at the end of the assay. To provide meaningful measurements of inhibition, the assays are performed both in the absence and presence of specific and known inhibitors, and the amount of incorporated radioactivity is compared to provide a baseline measurement.
The baseline activity is the amount of radioactivity incorporated in the absence of inhibitor. The amount of radioactivity incorporated in the presence of an inhibitor is called the ‘sample activity’, and the % inhibition is expressed by the following formula:
% inhibition=100−sample activity/baseline activity*100)
and is usually expressed in conjunction with the compound concentration. By using a range of inhibitor concentrations, the IC50 of an inhibitor is estimated (i.e. the concentration at which enzymatic activity is reduced by 50%).
Inhibition Assay: Compounds listed in Table 1 were lyophilized and stored at −20° C. Stock solutions were made by weighing out the compounds and dissolving them in dimethyl sulfoxide (DMSO) to a standard concentration, usually 20 mM, and stored at −20° C. The compounds were diluted to a starting intermediate concentration of 250 μM in 1% DMSO, then serially diluted across a row of a 96 well plate using serial 2 fold dilution steps. Diluted 100% DMSO was used as a negative control. 5 μl of each compound dilution were robotically pipetted to Costar serocluster plates maintaining the same plate format. All assays consisted of the following volumes:
and were then incubated 15 min at room temperature.
From each reaction, 10 μl of reaction mix was spotted onto Millipore Multiscreen-PH opaque plates and washed 2×10 min in 1% phosphoric acid. The plates were dried for at 40° C. for 30 min, then the substrate phosphate complexes were quantitated by scintillation counting. These Millipore plates are in a 96 well format with immobilized P81 phosphocellulose membranes. Both the phosphorylated and non-phosphorylated form of the substrate bind to the membrane while ATP (unincorporated phosphate) is removed in the subsequent wash steps.
Integrin Linked Kinase: The target integrin linked kinase is a full-length recombinant protein expressed in sF9 insect cells by baculovirus infection. The ILK1 substrate is CKRRRLASLR-amide.
Recombinant ILK protein was expressed using cultured insect cells and a baculovirus expression system. Standard techniques for DNA manipulation were used to produce recombinant DNA molecules and baculoviruses (Sambrook. J., Fritsch, E. F. and Maniatis, T. 1989. Molecular cloning, a laboratory manual. Second edition. Cold Spring Harbor Laboratory Press. NY; Crossen, R. and Gruenwald, S. 1998. Baculovirus expression Vector System Manual. 5th Edition. Pharmingen, San Diego, Calif.) but the isolation of active ILK required some ingenuity.
The ILK open reading frame (Hannigan et al., supra.), excluding the 5′ and 3′ untranslated regions, was inserted into the baculovirus transfer vector pAcG2T (Pharmingen) to produce a GST fusion protein under the control of the strong AcNPV polyhedrin promoter. A large scale plasmid preparation of the resulting transfer construct was made using a Qiagen Plasmid Midi Kit. This ILK transfer construct was then co-transfected with BaculoGold DNA (Pharmingen) into Sf9 insect cells (Invitrogen) and a high titre preparation of GST-ILK recombinant baculovirus was produced by amplification in Sf9 cells. […]

On to `COc1ccc(N/N=C2/C(=N)NN=C2N)cc1` [KP-15792, 3,5-diamino-4-(p-methoxyphenyl)hydrazonopyrazole], for which the anti-tumor activity entry in experiment [1] is “anti-tumor activity”. Further, the IC50 at integrin linked kinase came to 1 µM.

As for `N=C1NN=C(N)/C1=N/Nc1ccccc1` [KP-23194, 3,5-diamino-4-phenylhydrazonopyrazole], at integrin linked kinase, the IC50 came to 0.6 µM.

In the case of `Cc1ccc(NN=C2C(N)=NN=C2N)cc1` [KP-23195, 3,5-diamino-4-(p-methylphenyl)hydrazonopyrazole], the IC50 on integrin linked kinase came out at 5.3 µM.

On to `COc1ccc(NN=C2C(N)=NN=C2N)cc1O` [KP-23197, 3,5-diamino-4-(3-hydroxy-4-methoxyphenyl)hydrazonopyrazole], for which, at integrin linked kinase, the IC50 was determined as 4 µM.

Take `NC1=NNC(=O)C1/N=N/c1ccccc1` (stereo not shown) [KP-23198, 3-amino-4-phenylazo-2-pyrazolin-5-one]: the IC50 on integrin linked kinase amounted to 17.1 µM.

`Cc1ccc(/N=N/C2C(=O)NN=C2N)cc1` (stereo not shown) [KP-23199, 3-amino-4-(p-methylphenylazo)-2-pyrazolin-5-one]: the IC50 on integrin linked kinase is above 20 µM.

In the case of `COc1ccc(/N=N/C2C(=O)NN=C2N)cc1` (stereo not shown) [KP-23200, 3-amino-4-(p-methoxyphenylazo)-2-pyrazolin-5-one], on integrin linked kinase, the IC50 was above 20 µM.

With `COc1ccc(/N=N/C2C(=O)NN=C2N)cc1O` (stereo not shown) [KP-23201, 3-amino-4-(3-hydroxy-4-methyoxyphenylazo)-2-pyrazolin-5-one], the IC50 at integrin linked kinase worked out at 18 µM.

On to `O=C1NNC(=O)C1=NNc1ccccc1` [KP-23202, 4-phenylhydrazonopyrazolin-3,5-dione], for which the IC50 on integrin linked kinase is above 20 µM.

For the compound `Cc1ccc(NN=C2C(=O)NNC2=O)cc1` [KP-23203, 4-(p-methylphenyl)hydrazonopyrazolin-3,5-dione], the IC50 at integrin linked kinase is above 20 µM.

As to `COc1ccc(NN=C2C(=O)NNC2=O)cc1` [KP-23204, 4-(p-methoxyphenyl)hydrazonopyrazolin-3,5-dione], the IC50 on integrin linked kinase is above 20 µM.

Take `COc1ccc(NN=C2C(=O)NNC2=O)cc1O` [KP-23205, 4-(3-hydroxy-4-methyoxyphenyl)hydrazonopyrazolin-3,5-dione]: at integrin linked kinase, the IC50 was above 20 µM.

With `NC1=NN=C(N)C1=NNc1ccc(S(=O)(=O)O)cc1` [KP-27288, 4-[N′-(3,5-diaminopyrazole-4-ylidene)hydrazino]benzenesulfonic acid], the IC50 on integrin linked kinase was above 20 µM.

Regarding `NC1=NN=C(N)C1=NNN1CCOCC1` [KP-27289, 3,5-diamino-4-morpholinylhydrazonopyrazole], on integrin linked kinase, the IC50 turned out to be 9.6 µM.

Consider `NC1=NN=C(N)C1=NNCCN1CCOCC1` [KP-27290, 3,5-diamino-4-(2-morpholinylethyl)hydrazonopyrazole], for which the IC50 on integrin linked kinase worked out at 8.2 µM.

Turning to `NC1=NN=C(N)C1=NNc1ncc[nH]1` [KP-27291, 3,5-diamino-4-(2-imidazolyl)hydrazonopyrazole], at integrin linked kinase, the IC50 amounted to 28 µM.

As for `NC1=NN=C(N)C1=NNc1cc[nH]n1` [KP-27292, 3,5-diamino-4-(3-pyrazolyl)hydrazonopyrazole], the IC50 on integrin linked kinase worked out at 8 µM.

As for `NC1=NN=C(N)C1=NNc1nccs1` [KP-27293, 3,5-diamino-4-(2-thiazolyl)hydrazonopyrazole], at integrin linked kinase, the IC50 worked out at 0.9 µM.

With `NC1=NN=C(N)C1=NNc1cccc2ccccc12` [KP-27294, 3,5-diamino-4-(1-naphthyl)hydrazonopyrazole], the IC50 at integrin linked kinase came out at 0.6 µM.

Take `NC1=NN=C(N)C1=NNc1ccc(S(=O)(=O)O)c2ccccc12` [KP-27295, 4-[N′-(3,5-Diaminopyrazol-4-ylidene)hydrazino]naphthalene-1-sulfonic acid]: the IC50 on integrin linked kinase came to 19.3 µM.

As to `NC1=NN=C(N)C1=NNCC1CCNCC1` [KP-27386, 3,5-diamino-4-(4-piperidinylmethyl)hydrazonopyrazole], the IC50 at integrin linked kinase worked out at 13 µM.

`NC1=NN=C(N)C1=NNc1nccnn1` [KP-27387, 3,5-diamino-4-(3-[1,2,4]triazinyl)hydrazonopyrazole]: on integrin linked kinase, the IC50 was above 20 µM.

For the compound `NC1=NN=C(N)C1=NNc1ccc(C(=O)O)cc1` [KP-27388, 4-[N′-(3,5-diaminopyrazol-4-ylidene)hydrazino]benzoic acid], on integrin linked kinase, the IC50 is 13 µM.

Regarding `NC1=NN=C(N)C1=NNc1ccc(O)cc1` [KP-27389, 3,5-diamino-4-(p-hydroxyphenyl)hydrazonopyrazole], on integrin linked kinase, the IC50 is above 20 µM.

With `NC1=NN=C(N)C1=NNc1ccc(Cl)cc1` [KP-27390, 3,5-diamino-4-(p-chlorophenyl)hydrazonopyrazole], the IC50 on integrin linked kinase was 1.2 µM.

Turning to `CC(=O)Nc1ccc(NN=C2C(N)=NN=C2N)cc1` [KP-27392, 3,5-diamino-4-(p-acetoaminophenyl)hydrazonopyrazole], the IC50 on integrin linked kinase came out at 5 µM.

Take `NC1=NN=C(N)C1=NNc1c(O)ccc2ccccc12` [KP-27393, 3,5-diamino-4-(2-hydroxynaphthyl)hydrazonopyrazole]: the IC50 on integrin linked kinase is 3 µM.

As a reminder, the IC50 is the concentration needed to halve the response being measured.
